Source: PubChem BioAssay (NCI)
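Cultured in 96-well plates, cells were exposed to test compound for 48 hours across five concentrations. TGI is the concentration that stops growth completely.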

Experiments:
Assay in all cases: NCI tumour cell line growth inhibition, 48 h
UACC-62 melanoma = test system: UACC-62 melanoma
RPMI-8226 leukemia = test system: RPMI-8226 leukemia
HS 578T breast = test system: HS 578T breast
SK-MEL-5 melanoma = test system: SK-MEL-5 melanoma
NCI-H522 lung = test system: NCI-H522 lung
NCI-H23 lung = test system: NCI-H23 lung
CCRF-CEM leukemia = test system: CCRF-CEM leukemia
M14 melanoma = test system: M14 melanoma
OVCAR-5 ovarian = test system: OVCAR-5 ovarian
HOP-62 NSCLC = test system: HOP-62 NSCLC
MOLT-4 leukemia = test system: MOLT-4 leukemia
A498 renal = test system: A498 renal
U251 CNS = test system: U251 CNS
OVCAR-4 ovarian = test system: OVCAR-4 ovarian
786-0 renal = test system: 786-0 renal
SF-268 CNS = test system: SF-268 CNS
NCI/ADR-RES ovarian = test system: NCI/ADR-RES ovarian
COLO 205 colon = test system: COLO 205 colon
DU-145 prostate = test system: DU-145 prostate
BT-549 breast = test system: BT-549 breast

SMILES	TGI (UACC-62 melanoma) [µM]	TGI (RPMI-8226 leukemia) [µM]	TGI (HS 578T breast) [µM]	TGI (SK-MEL-5 melanoma) [µM]	TGI (NCI-H522 lung) [µM]	TGI (NCI-H23 lung) [µM]	TGI (CCRF-CEM leukemia) [µM]	TGI (M14 melanoma) [µM]	TGI (OVCAR-5 ovarian) [µM]	TGI (HOP-62 NSCLC) [µM]	TGI (MOLT-4 leukemia) [µM]	TGI (A498 renal) [µM]	TGI (U251 CNS) [µM]	TGI (OVCAR-4 ovarian) [µM]	TGI (786-0 renal) [µM]	TGI (SF-268 CNS) [µM]	TGI (NCI/ADR-RES ovarian) [µM]	TGI (COLO 205 colon) [µM]	TGI (DU-145 prostate) [µM]	TGI (BT-549 breast) [µM]
O=c1[nH]c2ccc(Cl)cc2o1	> 100	> 100	> 100	> 100	> 100	> 100	> 100	> 100	> 100	> 100	> 100	> 100	> 100	> 100	> 100	> 100	> 100	> 100	> 100	> 100
CCN(CC)/[N+]([O-])=N/OCOC	> 100	> 100	> 100	> 100	> 100	> 100	> 100	> 100	> 100	> 100	> 100	> 100	> 100	> 100	> 100	> 100	> 100	> 100	> 100	> 100
CC1CC(=NC2CCCCC2)Nc2ccccc2N1Cc1ccccc1 (configuration not stated)	3.69	> 32.7	19.7	6.77	13.6	22.3	> 36.4	4.46	24	20.3	30	9.7	19.9	20.2	> 39	17.3	19.9	17	17	18.7
c1ccc(C2=NN=C3C(c4ccccc4)=Nc4ccccc4N3C2)cc1	> 100	40.8	67.5	40.7	22.8	> 100	20.2	50.4	> 94.3	> 100	> 52.3	> 100	> 100	42	> 100	> 60.2	> 100	52.8	> 100	> 100
O=CC(O)C(O)C1OC(=O)c2cc(O)c(O)c(O)c2C2=C(O)C(O)=C3OC(=O)c4c(c(O)c(O)c5c4C3C2C(=O)O5)-c2c(cc(O)c(O)c2O)C(=O)OCC1O (configuration not stated)	> 100	> 100	> 100	> 100	86.4	> 100	> 100	> 100	> 100	> 100	63.3	> 100	70.2	51.5	32.2	> 100	> 100	> 100	> 100	> 100
CSc1ncc2c(C#N)c3[nH]c4ccccc4n3c(=O)c2n1	21.2	12.3	> 100	25.2	> 100	> 100	27.8	> 100	> 100	> 100	24.6	52.7	> 100	> 100	> 100	> 100	99.3	35.1	> 100	> 100
CN(C)CCNC(=O)c1cccc2c1Oc1cccc([N+](=O)[O-])c1O2	33	–	40.2	33.2	32.9	72.8	89.8	30	39.5	30.6	27.1	30.5	42.8	–	42.6	42.7	56.7	36	31.5	33.6
COC(=O)[C@]12C3=C(O)C(=O)C[C@H]1OC[C@H]2C=CC3	> 100	> 100	> 100	> 100	46.8	> 100	–	> 100	> 100	> 100	–	> 100	> 100	> 100	> 100	> 100	> 100	> 100	> 100	> 100
O=C(OCc1ccccc1)c1ccc(NCc2cc(O)ccc2O)cc1	3.15	> 100	5.43	2.87	0.883	3.73	2.8	4.02	13.9	20.1	–	3.21	2.64	2.99	2.67	2.99	4.18	2.88	13.5	2.19
Clc1ccc(C(Cc2ccccc2)c2c(Cl)nc(N3CCNCC3)nc2Cl)cc1 (configuration not stated)	44	33.7	32.6	27.8	25.9	36.8	27.2	29.7	32	30.2	15.9	24.8	26.9	43	30.1	–	35	3.11	27.6	47.4
CCOC(=O)N/N=C(\CC)NO	> 100	> 100	> 100	> 100	> 100	> 100	> 100	–	> 100	> 100	> 100	> 100	> 100	> 100	> 100	> 100	> 100	> 100	> 100	> 100
CCOC(=O)c1c(N2CCOCC2)ncn(-c2cccc(Cl)c2)c1=O	> 100	> 100	> 100	–	> 100	> 100	> 100	> 100	> 100	> 100	> 100	> 100	> 100	> 100	> 100	> 100	> 100	> 100	> 100	> 100
